# Entries after “also recorded” stand apart in the source; their conditions may differ. Where no end group is shown, it is not given here.
# Experiments:
# [1] = in vivo; cited from earlier work
# T cell responses = conditions: percentage of study subjects with positive T cell responses measured in the clinical trials; cited from earlier work
# [2] = tested on: metastatic ovarian adenocarcinoma; assay: MRI of tumor lesions of patient treated with PIT vaccine (Table 28); format: in vivo, human; conditions: before PIT vaccine
# Excerpt: • Disease was confined primarily to liver and lymph nodes. The use of MRI limits detection of lung (pulmonary) metastasis • May 2016-January 2017: Olaparib treatment • Dec. 25, 2016 (before PIT vaccine treatment) There was dramatic reduction in tumor burden with confirmation of response obtained at FU2 • January-March 2017—TOPO protocol (topoisomerase) • Apr. […] 21 2017 START PIT • Jul. […] 26, 2017—CBP+Gem+Avastin • Sep.
# [3] = published Disease Control Rate (ORR where no DCR data), RECIST; cited from earlier work
# [4] = tested on: Vaccine antigen specific CTL responses; conditions: published immune response rate (CTL) of the clinical study population; cited from earlier work
# [5] = tested on: glioblastoma multiforme (GBM); conditions: cited from earlier work
# EGFRvIII = conditions: cited from earlier work
# [6] = cited from earlier work
compound,measurement,setting,value
Adalimumab,ADA-related adverse event,[1],anti-drug antibodies and treatment failure
Etanercept,ADA-related adverse event,[1],no apparent effect on safety
"SSKALQRPV (additional peptide 11) [9 mer peptide vaccine, source antigen Bcr-Abl]",Response rate (Clinical Trials),T cell responses,0%
Factor-IX,ADA-related adverse event,[1],anaphylaxis
CC[C@@]1(O)C(=O)OCc2c1cc1n(c2=O)Cc2cc3c(CN(C)C)c(O)ccc3nc2-1 [Hycamtin],Lesion response (% Δ from BL),"[2]; SUM, FU3, after TOPO protocol",−68.9%
same,Lesion response (% Δ from BL),"[2]; TL1, FU3 (Apr. 6, 2017), after TOPO protocol",−44.8%
same,Lesion response (% Δ from BL),"[2]; TL2, FU3, after TOPO protocol",−47.1%
same,Lesion response (% Δ from BL),"[2]; TL3, FU3, after TOPO protocol",−62.0%
same,Lesion response (% Δ from BL),"[2]; TL4, FU3, after TOPO protocol",−100.0%
O=C(c1cc(Cc2n[nH]c(=O)c3ccccc23)ccc1F)N1CCN(C(=O)C2CC2)CC1 [Olaparib],Lesion response (% Δ from BL),"[2]; SUM of target lesions, FU1, during Olaparib treatment",−66.3%
same,Lesion response (% Δ from BL),"[2]; SUM, FU2, Olaparib treatment",−76.0%
same,Lesion response (% Δ from BL),"[2]; TL1, FU1, patient, MRI, during Olaparib treatment",−56.1%
same,Lesion response (% Δ from BL),"[2]; TL1, FU2 (Dec. 25, 2016), Olaparib treatment",−44.4%
same,Lesion response (% Δ from BL),"[2]; TL2, FU1, during Olaparib treatment",−100.0%
same,Lesion response (% Δ from BL),"[2]; TL2, FU2, Olaparib treatment",−100.0%
same,Lesion response (% Δ from BL),"[2]; TL3, FU1, during Olaparib treatment",−59.4%
same,Lesion response (% Δ from BL),"[2]; TL3, FU2, Olaparib treatment",−62.3%
same,Lesion response (% Δ from BL),"[2]; TL4, FU1, during Olaparib treatment",−65.8%
same,Lesion response (% Δ from BL),"[2]; TL4, FU2, Olaparib treatment",−100.0%
OKT3,ADA-related adverse event,[1],anaphylaxis
"QRPPFSQLHRFLADALNT (additional peptide 6) [18 mer peptide vaccine, source antigen DDR1]",Response rate (Clinical Trials),T cell responses,17%
Ustekinumab,ADA-related adverse event,[1],"anti-ustekinumab antibodies, affected"
MTPGTQSPFFLLLLLTVLTVV (additional peptide 10),Response rate (Clinical Trials),T cell responses,90%
"RYRKPDYTLDDGHGLLRFKST (additional peptide 5) [21 mer peptide vaccine, source antigen Abl-2]",Response rate (Clinical Trials),T cell responses,17%
YLEPGPVTA,Response rate (Clinical Trials),T cell responses,28%
"MMNLMQPKTQQTYTYD (additional peptide 1) [16 mer peptide vaccine, source antigen JUP]",Response rate (Clinical Trials),T cell responses,0%
recombinant factor VIII,ADA-related adverse event,[1],anaphylaxis
"ImMucin: anti-MUC1 signal peptide vaccine, ref 15; likely the 21 mer MTPGTQSPFFLLLLLTVLTVV",DCR,[3],73%
same,Clinical Trial Response Rate,[4],90%
Ipilimumab,DCR,[3],60%
same,Clinical Trial Response Rate,[4],72%
Erythropoietin,ADA-related adverse event,[1],pure red cell aplasia
Infliximab,ADA-related adverse event,[1],anaphylaxis
"LKKGAADGGKLDGNAKLNRSLK (additional peptide 3) [22 mer peptide vaccine, source antigen BAP31]",Response rate (Clinical Trials),T cell responses,11%
Abciximab,ADA-related adverse event,[1],anaphylaxis
"GRGSTTTNYLLDRDDYRNTSD (additional peptide 2) [21 mer peptide vaccine, source antigen ADA17]",Response rate (Clinical Trials),T cell responses,11%
"ALDQCKTSCALMQQHYDQTSCFSSP (additional peptide 7) [25 mer peptide vaccine, source antigen ITGB8]",Response rate (Clinical Trials),T cell responses,28%
"LEEKKGNYVVTDHC (also: conjugated to KLH) [Rindopepimut, 13-amino-acid peptide vaccine spanning the EGFRvIII mutation with additional C-terminal cysteine]",HR (overall survival),"[5]; Rindopepimut group versus control group, 95% CI 0.79-1.30",1.01
same,median overall survival,"[5]; phase III, Rindopepimut and temozolomide (n=371)",20.1 months
same,Responders,"EGFRvIII; Clinical trial (Phase II), cellular immune response by DTH reaction test, EGFRvIII-expressing GBM patients",3/18
same,Response rate,"EGFRvIII; Clinical trial (Phase II), cellular immune response by DTH reaction test",16.6%
same,patients developing cellular immune response assessed by DTH reaction test,"EGFRvIII; phase II, peptide conjugated to KLH, intradermal, newly diagnosed EGFRvIII-expressing GBM",3 out of 18
Thrombopoietin [TPO],ADA-related adverse event,[1],thrombocitopenia
same,most immunogenic region by State of Art class II HLA restricted epitope identification,"[6]; EpiVax/Genentech, US20040209324 A1",C-terminal end of TPO
same,"immunotoxic region, experimental proof in published literature",[6]; in vivo,N-terminal end of TPO
same,immunogenicity / anti-drug antibodies (ADA),[6]; patients treated with TPO drug,highly immunogenic protein drug causing toxicity in many patients; also recorded: Most individuals treated with TPO drug made anti-drug antibodies (ADA)
Epoetin,ADA-related adverse event,[1],Antibody-mediated pure red cell aplasia
"FPPKDDHTLKFLYDDNQRPYPP (additional peptide 4) [22 mer peptide vaccine, source antigen TOP2A]",Response rate (Clinical Trials),T cell responses,11%
Pegloticase,ADA-related adverse event,[1],"anti-dug antibody, treatment failure"
Basiliximab,ADA-related adverse event,[1],anaphylaxis
